Assay results: paper PMC9501983, “Transport and Permeation Properties of Dapivirine: Understanding Potential Drug-Drug Interactions” (Pharmaceutics, 2022)

Columns and labels:
MRP4 = target: T1, MRP4 (Homo sapiens, UniProt O15439); test: in vitro
T1 sequence (O15439 1-1325): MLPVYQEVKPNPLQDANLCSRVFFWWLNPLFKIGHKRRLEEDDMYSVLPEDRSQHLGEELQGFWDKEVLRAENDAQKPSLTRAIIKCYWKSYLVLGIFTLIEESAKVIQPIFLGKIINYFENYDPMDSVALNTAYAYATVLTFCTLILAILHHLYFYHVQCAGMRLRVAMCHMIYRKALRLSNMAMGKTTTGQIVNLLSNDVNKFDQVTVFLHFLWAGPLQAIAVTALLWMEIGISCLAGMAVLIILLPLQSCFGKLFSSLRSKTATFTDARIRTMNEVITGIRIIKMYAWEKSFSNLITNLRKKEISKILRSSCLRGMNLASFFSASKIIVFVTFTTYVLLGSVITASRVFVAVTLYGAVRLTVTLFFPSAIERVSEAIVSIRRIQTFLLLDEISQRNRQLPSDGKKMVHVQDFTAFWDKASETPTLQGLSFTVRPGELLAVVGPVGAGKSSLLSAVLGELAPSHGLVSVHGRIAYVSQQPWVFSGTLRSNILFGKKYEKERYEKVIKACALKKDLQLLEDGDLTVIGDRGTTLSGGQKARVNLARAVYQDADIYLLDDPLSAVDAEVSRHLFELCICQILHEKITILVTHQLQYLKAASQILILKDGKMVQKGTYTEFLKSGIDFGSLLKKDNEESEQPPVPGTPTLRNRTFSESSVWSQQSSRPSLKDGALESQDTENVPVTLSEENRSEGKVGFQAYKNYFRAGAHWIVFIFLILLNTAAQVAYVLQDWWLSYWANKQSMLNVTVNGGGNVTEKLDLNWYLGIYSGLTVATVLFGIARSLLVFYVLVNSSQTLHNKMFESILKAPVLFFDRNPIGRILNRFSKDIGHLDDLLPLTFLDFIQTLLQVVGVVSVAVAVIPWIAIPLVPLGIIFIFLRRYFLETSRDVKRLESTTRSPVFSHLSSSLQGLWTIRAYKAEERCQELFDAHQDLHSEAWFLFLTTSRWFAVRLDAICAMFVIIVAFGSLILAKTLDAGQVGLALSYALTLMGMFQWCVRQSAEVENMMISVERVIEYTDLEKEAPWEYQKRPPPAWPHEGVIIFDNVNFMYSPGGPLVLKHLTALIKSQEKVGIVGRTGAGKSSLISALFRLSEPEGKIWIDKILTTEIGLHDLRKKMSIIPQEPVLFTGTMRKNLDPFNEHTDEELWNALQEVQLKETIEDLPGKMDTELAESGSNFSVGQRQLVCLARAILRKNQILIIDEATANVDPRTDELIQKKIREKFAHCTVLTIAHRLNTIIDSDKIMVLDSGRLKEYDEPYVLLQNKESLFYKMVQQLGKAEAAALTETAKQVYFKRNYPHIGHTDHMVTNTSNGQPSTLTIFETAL
Method: (§1) To investigate if DPV was a substrate or inhibitor of MRP1 or MRP4, ATP-dependent and independent uptake of DPV (in the substrate study) or estradiol 17 β-D-glucuronide (a known MRP1/MRP4 substrate in the inhibitor study) was measured using 50 μg MRP1, MRP4, and control vesicles. […] The uptake assay was performed at a total volume of 50 μL with either 4 mM ATP or AMP, 2 mM glutathione, 10 μM DPV or estradiol 17 β-D-glucuronide as substrates, with and without 20 μM DPV or MK571 as inhibitors. […] To quantify the uptake amount of DPV or estradiol 17 β-D-glucuronide, 4 μCi mL^−1 3H-DPV or ^3H- estradiol 17 β-D-glucuronide was added to the assay mixture.
(§2) The vesicular uptake assays were performed under the above-mentioned conditions. The membrane vesicles were first incubated with respective inhibitor solution or blank assay buffer. The reaction was then initiated by adding the remaining components of the assay mixture to the vesicles and incubated at 37 °C for 3 min. To terminate the reaction, 200 μL ice-cold buffer was added to each well. The samples were then transferred to a glass fiber filter plate and washed 5 times by rapid filtration using a vacuum manifold (IBI Scientific, Dubuque, IA, USA). To quantify ^3H-DPV and ^3H-estradiol 17 β-D-glucuronide uptake, the washed vesicles were lysed with scintillation cocktail at room temperature for 20 min. The collected samples were analyzed on an LS6500 liquid scintillation counter (Beckman Coulter, Brea, CA, USA).
(§3) If ATP-dependent uptake was observed, the uptake amount by active transport was calculated using Equation (1):(1) Normalized uptake=mean uptake with ATP−mean uptake with AMP

MRP1 [1] = tested on: MRP1; set-up: method as in PMID 26102284; conditions: DPV at 10 μM; cited from earlier work
UGT enzymes = tested on: UGT enzymes; set-up: method as in PMID 34959473; conditions: cited from earlier work
HEC-1-A cells = test: Tight junction disruption, TEER of HEC-1-A monolayers in Ussing chamber; assay type: cell-based, human; conditions: apical treatment in HBSS without Ca/Mg; DPV 5 μM, MIC 5 μM, combination 5 μM each, EGTA 2 mM
Method: HEC-1-A cells were seeded at a density of 9000 cells per cm^2 onto 0.4 μm permeable snapwell inserts (Corning Inc., Corning, NY, USA). […] Only monolayers displaying TEER values above the threshold indicating confluency (130 Ωcm^2) were considered qualified to be used in this study.
To evaluate tight junction disruption, qualified HEC-1-A cell monolayers were mounted onto the Ussing Chamber apparatus (Physiologic Instruments, San Diego, CA, USA) to monitor TEER values. After equilibrating cells with HBSS at 37 °C for 20 min, buffer in basolateral chambers was replaced with HBSS without calcium or magnesium (HBSS Ca^−&Mg^−), while buffer in the apical chambers was replaced with respective treatment solution in HBSS Ca^−&Mg^-. Treatments included 5 μM DPV, 5 μM MIC, and 5 μM DPV with 5 μM MIC. 2 mM EGTA, a known tight junction disruptor that decreases TEER, was used as the positive control and blank HBSS Ca^-&Mg^- was used as negative control. Cells were incubated at 37 °C for 80 min and the obtained TEER values were normalized against initial measurements at time 0.

human cervical tissue = test: Histology (H&E) of human cervical tissue after permeability assay; conditions: 6-h exposure, clinically relevant concentrations
Method: Gross morphology of tissue samples was evaluated using hematoxylin and eosin (H&E) staining. After fixation in formalin, tissue samples were dehydrated in alcohol, cleared in xylene, and embedded in paraffin wax. Five-micron sections of embedded tissue were used to perform H&E staining following manufacturer’s procedures (hematoxylin for 5 min, bluing reagent for 15 s, and eosin for 2 min) and mounted onto microscope slides using Cytoseal 60. Images were acquired using the AxioCam software, version 4.9.1 (Carl Zeiss, San Diego, CA, USA) paired with the microscope, Axioskop 40 (Carl Zeiss, San Diego, CA, USA).

MRP1 [2] = target: MRP1 (Homo sapiens, UniProt P33527)
MRP1 (Homo sapiens, UniProt P33527), sequence (P33527 whole entry): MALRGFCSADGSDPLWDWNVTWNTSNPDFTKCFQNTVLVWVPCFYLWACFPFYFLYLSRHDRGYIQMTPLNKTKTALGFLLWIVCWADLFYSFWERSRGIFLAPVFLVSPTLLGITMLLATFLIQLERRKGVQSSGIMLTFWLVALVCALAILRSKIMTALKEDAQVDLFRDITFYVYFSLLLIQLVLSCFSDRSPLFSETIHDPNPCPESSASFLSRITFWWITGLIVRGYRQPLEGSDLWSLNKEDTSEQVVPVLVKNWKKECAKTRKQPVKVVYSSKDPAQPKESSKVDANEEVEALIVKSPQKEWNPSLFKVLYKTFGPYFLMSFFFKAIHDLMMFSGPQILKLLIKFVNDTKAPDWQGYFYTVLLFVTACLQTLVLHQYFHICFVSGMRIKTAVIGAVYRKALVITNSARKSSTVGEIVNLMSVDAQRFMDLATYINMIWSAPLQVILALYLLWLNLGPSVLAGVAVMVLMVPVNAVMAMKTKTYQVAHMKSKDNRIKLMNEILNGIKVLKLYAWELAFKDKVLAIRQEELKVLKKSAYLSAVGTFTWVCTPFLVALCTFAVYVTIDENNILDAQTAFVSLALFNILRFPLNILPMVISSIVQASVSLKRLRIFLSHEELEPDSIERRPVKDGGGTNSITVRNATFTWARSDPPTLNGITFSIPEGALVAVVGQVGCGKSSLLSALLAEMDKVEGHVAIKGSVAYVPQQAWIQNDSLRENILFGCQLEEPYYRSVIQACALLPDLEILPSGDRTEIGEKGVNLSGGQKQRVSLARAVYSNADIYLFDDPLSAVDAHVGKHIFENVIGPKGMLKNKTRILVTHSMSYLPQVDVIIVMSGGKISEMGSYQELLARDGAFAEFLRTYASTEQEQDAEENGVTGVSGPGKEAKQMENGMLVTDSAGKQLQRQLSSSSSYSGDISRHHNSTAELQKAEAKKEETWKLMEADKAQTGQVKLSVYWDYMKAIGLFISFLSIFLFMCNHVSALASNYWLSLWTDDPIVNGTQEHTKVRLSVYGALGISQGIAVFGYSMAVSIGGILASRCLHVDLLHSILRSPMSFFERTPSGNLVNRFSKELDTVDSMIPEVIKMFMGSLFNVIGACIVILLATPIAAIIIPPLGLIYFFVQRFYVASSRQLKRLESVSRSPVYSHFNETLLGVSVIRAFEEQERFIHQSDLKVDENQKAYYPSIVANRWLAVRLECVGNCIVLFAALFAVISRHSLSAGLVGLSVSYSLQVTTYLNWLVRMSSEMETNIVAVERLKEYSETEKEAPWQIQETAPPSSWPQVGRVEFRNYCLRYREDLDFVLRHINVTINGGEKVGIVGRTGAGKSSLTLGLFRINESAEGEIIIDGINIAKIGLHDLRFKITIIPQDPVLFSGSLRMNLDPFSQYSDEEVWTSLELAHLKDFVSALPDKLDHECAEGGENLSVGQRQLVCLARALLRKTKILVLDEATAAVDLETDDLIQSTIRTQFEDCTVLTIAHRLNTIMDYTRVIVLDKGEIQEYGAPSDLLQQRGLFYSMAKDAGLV
Method: as §1, §2, §3

[3] = 10 μM substrate, 20 μM test inhibitor, ATP minus AMP

For `Cc1cc(C)c(Nc2ccnc(Nc3ccc(C#N)cc3)n2)c(C)c1` [DPV, dapivirine], the “Substrate status for MRP4” value (MRP4) was “not a substrate”, the “Normalized estradiol 17 β-D-glucuronide uptake by MRP4 vesicles co-incubated with inhibitor” value (MRP4; [3]) was 14.08 fmol and the “Active uptake of estradiol 17 β-D-glucuronide by MRP4 vesicles, reduced to % of control” value (MRP4; 20 µM) was “not significantly affected”. The “Effect on MRP1 expression level” value (MRP1 [1]) was “upregulated”, the “Substrate of UGT enzymes” value (UGT enzymes) was “not a substrate” and the “Relative TEER percentage of baseline value at 80 min” value (HEC-1-A cells) was 94.7 ± 7.8%. For the same compound, the “Gross morphology of human cervical epithelium after exposure” value (human cervical tissue) was “did not alter the gross morphology”, the “Substrate status for MRP1” value (MRP1 [2]) was “not a substrate” and the “Normalized estradiol 17 β-D-glucuronide uptake by MRP1 vesicles co-incubated with inhibitor” value (MRP1 [2]; [3]) was 35.83 fmol. The “Active uptake of estradiol 17 β-D-glucuronide by MRP1 vesicles, reduced to % of control” value (MRP1 [2]; 20 µM) was “not significantly affected”.
